Reference: the supplement of paper PMC5908809

Key:
Assay in all cases: relative IC50 (inflection point of fitted viability curve, relative to fitted max inhibition); higher = less sensitive
Details in all cases: 72 h
KHYG-1 (IL-2 2.5 ng/mL) = tested on: KHYG-1 (IL-2 2.5 ng/mL)
Method: (§1)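 Drug sensitivity and resistance testing: 5 concentrations over a 10,000-fold range, 72 h at 37 °C, viability by CellTiter-Glo normalised to DMSO and benzethonium chloride controls. IC50 is the inflection point of a logistic fit (min fixed at 0, max fitted), so it is relative to the fitted maximal inhibition. Kept only where fitted max inhibition is at least 50%.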

[1] = tested on: normal primary NK cells, pool 3 (3 donors) (IL-2 2.5 ng/mL)
Method: as §1

[2] = tested on: normal primary NK cells, pool 2 (3 donors) (IL-2 2.5 ng/mL)
Method: as §1

[3] = tested on: normal primary NK cells, pool 1 (3 donors) (IL-2 2.5 ng/mL)
Method: as §1

DERL-7 (IL-2 2.5 ng/mL) = tested on: DERL-7 (IL-2 2.5 ng/mL)
Method: as §1

KAI3 (IL-2 2.5 ng/mL) = tested on: KAI3 (IL-2 2.5 ng/mL)
Method: as §1

[4] = tested on: normal primary NK cells, pool 1 (3 donors), resting (IL-2 0 ng/mL)
Method: as §1

NKL (IL-2 2.5 ng/mL) = tested on: NKL (IL-2 2.5 ng/mL)
Method: as §1

NK-92 (IL-2 2.5 ng/mL) = tested on: NK-92 (IL-2 2.5 ng/mL)
Method: as §1

IMC-1 (IL-2 20 ng/mL) = tested on: IMC-1 (IL-2 20 ng/mL)
Method: as §1

YT (IL-2 2.5 ng/mL) = tested on: YT (IL-2 2.5 ng/mL)
Method: as §1

NK-YS (IL-2 2.5 ng/mL) = tested on: NK-YS (IL-2 2.5 ng/mL)
Method: as §1

SNK-6 (IL-2 2.5 ng/mL) = tested on: SNK-6 (IL-2 2.5 ng/mL)
Method: as §1

SMILES	relative IC50 (KHYG-1 (IL-2 2.5 ng/mL)) [µM]	relative IC50 [1] [µM]	relative IC50 [2] [µM]	relative IC50 [3] [µM]	relative IC50 (DERL-7 (IL-2 2.5 ng/mL)) [µM]	relative IC50 (KAI3 (IL-2 2.5 ng/mL)) [µM]	relative IC50 [4] [µM]	relative IC50 (NKL (IL-2 2.5 ng/mL)) [µM]	relative IC50 (NK-92 (IL-2 2.5 ng/mL)) [µM]	relative IC50 (IMC-1 (IL-2 20 ng/mL)) [µM]	relative IC50 (YT (IL-2 2.5 ng/mL)) [µM]	relative IC50 (NK-YS (IL-2 2.5 ng/mL)) [µM]	relative IC50 (SNK-6 (IL-2 2.5 ng/mL)) [µM]
COC(=O)N[C@@H](C)CNc1nccc(-c2cn(C(C)C)nc2-c2cc(Cl)cc(NS(C)(=O)=O)c2F)n1 [Encorafenib]	0.0343	> 1	> 1	> 1									
CN(N=O)C(=O)N[C@@H](C=O)[C@@H](O)[C@H](O)[C@H](O)CO [Streptozocin]		> 10		> 10	> 10	> 10	> 10	> 10	> 10				
Cc1cc2c(F)c(Oc3ncnn4cc(OC[C@@H](C)O)c(C)c34)ccc2[nH]1 [Brivanib]	> 1	> 1	> 1					> 1	> 1	> 1	> 1		
CS(=O)(=O)N1CCN(Cc2cc3nc(-c4cccc5[nH]ncc45)nc(N4CCOCC4)c3s2)CC1 [Pictilisib]	2.01		1.95	1.12	0.472	1.49	0.694	0.821	0.421	> 10	1.26	1.18	
C[C@]12C=CC(=O)C=C1CC[C@@H]1[C@@H]2[C@@H](O)C[C@@]2(C)[C@H]1CC[C@]2(O)C(=O)CO [Prednisolone]			0.165	0.185	0.0657	> 10	0.0699	0.0247	> 10	> 10			
Oc1nc(-c2ccc(C(F)(F)F)cc2)nc2c1CSCC2 [XAV-939]							> 10						0.968
O=C(O)CC[C@H]1CC[C@@](c2cc(F)ccc2F)(S(=O)(=O)c2ccc(Cl)cc2)CC1 [MK-0752]			> 1				> 1						
CC/C(=C(\c1ccc(O)cc1)c1ccc(OCCN(C)C)cc1)c1ccccc1 [4-hydroxytamoxifen]	1.29		2.7	3.34	1.69	2.64	3.75	2.7	2.85	2.13	2.33	2.25	3.89
CC(C)Oc1cc(Nc2nc(N[C@@H](C)c3ccc(F)cn3)ncc2Cl)n[nH]1 [AZ-23]			0.606				> 1						
Cc1csc(-c2nnc(Nc3ccc(Oc4ncccc4-c4ccnc(N)n4)cc3)c3ccccc23)c1 [AMG-900]	0.0113		> 1	> 1	0.0111			> 1	0.0585	0.123		0.0054	0.0028
CC(C)n1cnc2c(NCCc3ccc(O)cc3)nc(-c3csc4ccccc34)nc21 [StemRegenin 1]	2.45		3.42		0.112	3.18	1.9	1.62	1.18		2.53		3.86
N#CC1(c2ccc(NC(=O)c3cccnc3NCc3ccncc3)cc2)CCCC1 [Apatinib]			> 10					> 10	1.71				
CO[C@H]1C[C@@H]2CC[C@@H](C)[C@@](O)(O2)C(=O)C(=O)N2CCCC[C@H]2C(=O)O[C@H]([C@H](C)C[C@@H]2CC[C@@H](OCCO)[C@H](OC)C2)CC(=O)[C@H](C)/C=C(\C)[C@@H](O)[C@@H](OC)C(=O)[C@H](C)C[C@H](C)/C=C/C=C/C=C/1C [Everolimus]		> 0.1			0.00094					> 0.1			
C=CCn1c(=O)c2cnc(Nc3ccc(N4CCN(C)CC4)cc3)nc2n1-c1cccc(C(C)(C)O)n1 [MK1775]	0.0593				0.185	0.0957		0.0572	0.0938	0.361	0.19	0.227	0.156
CC[C@H](CC#N)OC(=O)N[C@@H](C)c1cccc(NC(=O)Nc2ccc(-c3cnco3)c(OC)c2)c1 [AVN944]	0.103				0.104	0.117	2.17	0.117	0.166	0.622	0.138	0.103	0.0677
CCN(CC)CCNC(=O)c1c(C)[nH]c(/C=C2\C(=O)Nc3ccc(F)cc32)c1C [Sunitinib]	> 1							> 1	> 1	> 1			
O=S(=O)(c1cccc2cnccc12)N1CCCNCC1 [Fasudil]		15.9	10.9	8.17		6.87					8.76		
N#CCNC(=O)c1ccc(-c2ccnc(Nc3ccc(N4CCOCC4)cc3)n2)cc1 [Momelotinib]	0.173	1	0.81	0.177	0.394	0.205		0.178	0.346	1.8	1.14	0.796	0.891
Cn1c(Nc2ccc(C(F)(F)F)cc2)nc2cc(Oc3ccnc(-c4ncc(C(F)(F)F)[nH]4)c3)ccc21 [RAF265]							0.0474		0.175				
CC(C)(C)NC(=O)[C@H]1CC[C@H]2[C@@H]3CC[C@H]4NC(=O)C=C[C@]4(C)[C@H]3CC[C@]12C [Finasteride]													> 10
O=C(CCCCCCC(=O)Nc1ccc([C@H]2O[C@@H](CSc3nc(-c4ccccc4)c(-c4ccccc4)o3)C[C@@H](c3ccc(CO)cc3)O2)cc1)NO [Tubacin]	3.09				1.62	2.07	3.8	1.33	1.66	2.65	2.63	2.83	1.8
CC(C)(C)c1nc(-c2cccc(NS(=O)(=O)c3c(F)cccc3F)c2F)c(-c2ccnc(N)n2)s1 [Dabrafenib]	0.0721	> 2.5	> 2.5					> 2.5	> 2.5				
Cc1c(CN2CCN(C(=O)[C@H](C)O)CC2)sc2c(N3CCOCC3)nc(-c3cnc(N)nc3)nc12 [Apitolisib]	1.6	2.31	1.32	0.902	0.204	0.457		0.492	0.145		0.622	0.599	
O=C(O)c1ccc(-c2c[nH]c3ncc(-c4ccccc4)cc23)cc1C1CCCC1	1.49				2.82	0.307		1.4	2.33	3.04		1.46	
CC/C(=C(\c1ccccc1)c1ccc(OCCN(C)C)cc1)c1ccccc1 [Tamoxifen]			2.59	2.06	1.68	2.45	1.68	1.43	2.94		2.7		3.7
O=C(NC[C@H](O)CO)c1ccncc1Nc1ccc(I)cc1F [Pimasertib]	0.083							0.049					> 10
CC(C)Cn1cnc2c(N)nc3ccccc3c21 [Imiquimod]													0.0896
CC[C@]1(O)C[C@H]2CN(CCc3c([nH]c4ccccc34)[C@@](C(=O)OC)(c3cc4c(cc3OC)N(C=O)[C@H]3[C@@](O)(C(=O)OC)[C@H](OC(C)=O)[C@]5(CC)C=CCN6CC[C@]43[C@@H]65)C2)C1 [Vincristine]	0.00314				0.00338	0.0079		0.0029	0.00988	0.00341	0.0036	0.00545	0.00474
